{
  "source": "paper PMC10087775",
  "about": "“ProX from marine Synechococcus spp. show a sole preference for glycine‐betaine with differential affinity between ecotypes” (Environmental Microbiology, 2022)",
  "key": {"ChoX": {"biological_target": "ChoX", "parameters": "method as in Oswald et al. ([2008])", "conditions": "ref Oswald et al. ([2008]); read-out: Affinity (K D); cited from earlier work"}, "OpuAC": {"biological_target": "OpuAC", "parameters": "method as in Wolters et al. ([2010])", "conditions": "ref Wolters et al. ([2010]), read-out: Affinity (K D), cited from earlier work"}, "TmoX": {"biological_target": "TmoX", "parameters": "method as in Li et al. ([2015])", "conditions": "ref Li et al. ([2015]); read-out: Affinity (K D); cited from earlier work"}, "(UniProt A0A7G8ITR3)": {"biological_target": "(UniProt A0A7G8ITR3)", "sequence (A0A7G8ITR3 40-334 limits assumed)": "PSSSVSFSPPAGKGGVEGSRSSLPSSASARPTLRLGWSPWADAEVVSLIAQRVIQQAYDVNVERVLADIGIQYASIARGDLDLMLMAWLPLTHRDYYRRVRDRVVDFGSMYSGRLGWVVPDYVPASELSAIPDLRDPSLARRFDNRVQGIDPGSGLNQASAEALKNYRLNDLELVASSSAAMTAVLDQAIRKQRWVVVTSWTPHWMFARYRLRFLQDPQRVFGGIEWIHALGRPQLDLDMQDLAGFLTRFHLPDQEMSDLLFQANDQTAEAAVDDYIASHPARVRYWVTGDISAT", "experiment": "Modified DSF (isothermal analysis, FoldAffinity) binding affinity of MITS9220_ProX", "parameters": "species or system Synechococcus sp. MITS9220", "conditions": "read-out: Affinity (K D)", "method": "(§1) The DSF assay was modified to elucidate binding kinetics, following a published protocol specifically outlining this application, and validated using SBPs (Bai et al., [2019]). Briefly, a range of protein concentrations were tested (2–20 μM) to determine the optimal signal‐to‐noise ratio while requiring a low protein concentration (5 μM). Protein solutions were prepared in Buffer A at a concentration of 10 μM, with a 50× concentration of SYPRO Orange dye. Working stocks of ligands were prepared independently (in Buffer A) at the following concentrations: 0.4, 0.8, 1.6, 3.2, 6.4, 12.8, 25, 50, 100, 200, 2000 μM. ProX protein and ligands (10 μl each) were both delivered in triplicate into a 96‐well plate (final volume 20 μl). Plates were centrifuged in a benchtop plate spinner (1 min) to ensure sample homogeneity before recording fluorescence data across the thermal ramp as previously described.\n(§2) Data were processed using two independent software packages: the provided Python package (Bai et al., [2019]) and the web‐based FoldAffinity tool (Niebling et al., [2021]) to ensure their consistency and determine affinity values. The final values reported were taken from FoldAffinity. Processed results were then plotted (GraphPad Prism) to generate publication‐quality figures of the processed data.\n(§3) Purified ProX samples were subjected to binding kinetics determination using a modified DSF approach (Bai et al., [2019]; Niebling et al., [2021]). This approach was selected due to aberrant noise in calorimetric and tryptophan quenching experiments, attributed to possible dimer‐monomer interconversion co‐occurring with ligand‐binding events. […] This is related to the proportion of folded versus unfolded protein at a single temperature (isothermal analysis) using a selected temperature value (T sel ) slightly above the T M previously determined. Using the FoldAffinity tool (Niebling et al., [2021]), non‐linear regression and curve fitting of the processed thermal melt curves allowed the determination of ligand dissociation constants (K D ) for each protein and ligand partner."}, "ProX [1]": {"biological_target": "ProX", "parameters": "method as in Schiefner, Breed, et al. ([2004])", "conditions": "ref Schiefner, Breed, et al. ([2004]); read-out: Affinity (K D); cited from earlier work"}, "ProX [2]": {"biological_target": "ProX", "parameters": "method as in Schiefner, Holtmann, et al. ([2004])", "conditions": "ref Schiefner, Holtmann, et al. ([2004]); read-out: Affinity (K D); cited from earlier work"}, "WH8102_ProX [3]": {"biological_target": "T1, WH8102_ProX (Parasynechococcus marenigrum, UniProt Q7U4Z5)", "T1 sequence (Q7U4Z5 entry or part of it)": "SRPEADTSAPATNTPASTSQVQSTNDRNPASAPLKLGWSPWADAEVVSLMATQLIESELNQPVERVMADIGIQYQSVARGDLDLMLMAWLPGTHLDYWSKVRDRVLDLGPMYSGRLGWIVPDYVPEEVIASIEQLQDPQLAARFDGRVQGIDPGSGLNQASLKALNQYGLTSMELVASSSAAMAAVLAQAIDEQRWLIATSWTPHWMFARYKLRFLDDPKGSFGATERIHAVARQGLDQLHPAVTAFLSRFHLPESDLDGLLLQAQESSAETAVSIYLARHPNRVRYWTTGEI", "experiment": "Modified DSF (isothermal analysis, FoldAffinity) binding affinity of WH8102_ProX", "parameters": "species or system Synechococcus sp. WH8102", "conditions": "for Kd: read-out: Affinity (K D)", "method": "as §1, §2, §3"}, "MITS9220_ProX": {"tested_on": "MITS9220_ProX", "experiment": "DSF thermal melt ligand screening of MITS9220_ProX", "type": "binding, Synechococcus sp. MITS9220", "conditions": "ligand tested independently by DSF", "method": "(§4) Commercially available libraries of small molecules were tested as potential binding partners to ProX by recording differential scanning fluorimetry (DSF) responses over a thermal gradient (Neisen et al., [2007]). SYPRO Orange dye (Invitrogen) was used to monitor fold integrity in discrete protein mixtures by measuring fluorescence at 590 nm following excitation at 485 nm using a Stratagene MX3000P q‐PCR instrument. Compounds tested in 96‐well blocks incorporated common protein stabilizing ligands (HR2‐096 Silver Bullets, Hampton Research) and single‐molecule osmolyte sources (MicroPlate PM9, Biolog Inc). The concentration of these compounds following reaction set‐up was ~4 μM, and, therefore below the concentration required to effect complete saturation of the binding pocket. Each condition was tested in triplicate, with each plate containing a control well with no additive.\n(§5) Thermal melt curves were analysed using the analysis template provided (Neisen et al., [2007]) and fitting of Boltzmann distribution (GraphPad Prism) for the determination of mid‐point thermal melt temperatures (Bai et al., [2019]). The only condition (Silver Bullets well #D8) leading to a significant increase (>3°C) in melting temperature was deconvoluted to identify the single component leading to such a change and repeated in triplicate."}, "WH8102_ProX [4]": {"biological_target": "T1, WH8102_ProX", "experiment": "DSF thermal melt ligand screening of WH8102_ProX", "type": "binding, Synechococcus sp. WH8102", "conditions": "ligand tested independently by DSF", "method": "as §4, §5"}, "[5]": {"conditions": "0.50 M NaCl (Buffer A), Tsel 62°C"}},
  "note": "Like-named read-outs stand apart in the source and are kept apart here.",
  "data": [
    {"compound": "CC(=O)OCC[N+](C)(C)C", "note": "[Acetylcholine]", "values": [
      {"measurement": "Kd", "setting": "ChoX", "result": 145, "unit": "µM"}
    ]},
    {"compound": "C[N+](C)(C)CC(O)CC(=O)[O-]", "note": "(stereo not shown) [Carnitine]", "values": [
      {"measurement": "Kd", "setting": "OpuAC; dash with footnote b", "result": "> 10000", "unit": "µM"}
    ]},
    {"compound": "C[N+](C)(C)CCO", "note": "[Choline]", "values": [
      {"measurement": "Kd", "setting": "TmoX", "result": 3.8, "unit": "µM"},
      {"measurement": "Kd", "setting": "ChoX", "result": 2.7, "unit": "µM"}
    ]},
    {"compound": "O=C(O)[C@@H]1CCCN1", "note": "[Proline]", "values": [
      {"measurement": "Kd", "setting": "OpuAC; dash with footnote b", "result": "> 10000", "unit": "µM"}
    ]},
    {"compound": "C[N+](C)(C)[O-]", "note": "[Trimethylamine oxide]", "values": [
      {"measurement": "Kd", "setting": "TmoX", "result": 1.6, "unit": "µM"}
    ]},
    {"compound": "C[N+](C)(C)CC(=O)[O-]", "note": "[glycine betaine]", "values": [
      {"measurement": "Kd", "setting": "(UniProt A0A7G8ITR3); 0.25 M NaCl", "result": 1.1, "unit": "µM"},
      {"measurement": "Kd", "setting": "(UniProt A0A7G8ITR3); [5]", "result": 1.2, "unit": "µM"},
      {"measurement": "Kd", "setting": "(UniProt A0A7G8ITR3); 1.5 M NaCl", "result": 0.52, "unit": "µM"},
      {"measurement": "Kd", "setting": "ProX [1]", "result": 1, "unit": "µM"},
      {"measurement": "Kd", "setting": "ProX [2]", "result": 0.06, "unit": "µM"},
      {"measurement": "Kd", "setting": "WH8102_ProX [3]; 0.25 M NaCl", "result": "13 ± 0.5", "unit": "µM"},
      {"measurement": "Kd", "setting": "WH8102_ProX [3]; 0.50 M NaCl (Buffer A)", "result": 12, "unit": "µM"},
      {"measurement": "Kd", "setting": "WH8102_ProX [3]; 1.5 M NaCl", "result": "13 ± 0.7", "unit": "µM"}
    ]},
    {"compound": "C[N+]1(C)CCC[C@H]1C(=O)[O-]", "note": "[proline betaine]", "values": [
      {"measurement": "Kd", "setting": "OpuAC", "result": 41, "unit": "µM"},
      {"measurement": "TM shift", "setting": "MITS9220_ProX", "result": "approximately 4 °C"},
      {"measurement": "Kd", "setting": "(UniProt A0A7G8ITR3); [5]", "result": "> 1000", "unit": "µM"},
      {"measurement": "Kd", "setting": "ProX [1]", "result": 5, "unit": "µM"},
      {"measurement": "Kd", "setting": "ProX [2]", "result": 0.05, "unit": "µM"},
      {"measurement": "TM shift", "setting": "WH8102_ProX [4]", "result": "< 2", "unit": "°C"},
      {"measurement": "Kd", "setting": "WH8102_ProX [3]; 0.50 M NaCl (Buffer A)", "result": "250 ± 80", "unit": "µM"},
      {"measurement": "shifts in observed melting temperatures upon incremental addition of ligand", "setting": "WH8102_ProX [3]; modified DSF, Figure S3", "result": "negligible shifts"}
    ]}
  ]
}
